Source: US9855310B2, “Coix seed oil containing 8 triglycerides, and pharmaceutical preparation and use thereof” (ZHEJIANG KANGLAITE GROUP CO., LTD., priority 2014, dated 2018)
≈ marks a conversion by molar mass, not a printed value. Where a name gives a salt, the structure may show the parent alone. Marks after values point to notes of the source that are not given here. Values belong to the compound of their own block, whether it stands above or below them.

Tests used:
QGY human hepatoma = assay: Growth of QGY human hepatoma transplanted in nude mice; settings: ip × 7qd
Description: A549 Human lung cancer cells cryopreserved in liquid nitrogen were recovered, and incubated in a 37 incubator under 5% CO2. After being subcultured, cells in a logarithmic growth stage were distributed with normal saline to be a cell suspension in a concentration of 1-2×10^7 cells/ml. The cell suspension was inoculated into BALB/C nude mice (SPF grade, 18-20 g, 6 weeks old, male) subcutaneously at right axillary. The tumor tissues were aseptically taken from the 2nd generation of xenograft model of A549 human lung cancer in a vigorous growth stage and cut into small uniform pieces in the size of 1-2 mm^3. The right axillary of each nude mouse was inoculated one piece subcutaneously via a trocar. When the inoculated tumor could be touched, the mice were randomly grouped and administered according to the experimental design program. All contacted feed, padding, cages and equipment, etc., should be autoclaved prior to use. The nude mice were fed in a laminar flow rack. Tumor sizes and animal weights were observed and tested dynamically. Mice in each group were sacrificed 3 weeks later or so, and tumors were surgically removed and weighed.
(§3) Q value of antitumor effect in drug combination was calculated according to Jin's formula: Q=Ea+b/(Ea+Eb−Ea×Eb) Wherein Ea+b=the tumor inhibition rate of drug combination, Ea or Eb=the tumor inhibition rate of drug A or drug B, respectively.
QGY human hepatoma cells cryopreserved in liquid nitrogen were recovered, and incubated in a 37 incubator under 5% CO2.

A549 human lung cancer = assay: Growth of A549 human lung cancer transplanted in nude mice; format: in vivo, BALB/C nude mice; settings: ip × 7qd
Description: The injection of the invention (10 g/100 ml), Cisplatin (Qilu Pharmaceutical Co., Ltd), blank fat emulsion and normal saline

S180 sarcoma = S180 sarcoma transplanted in mice; format: in vivo, Kunmin mice; settings: ip × 2(1, 3)
Description: The injection of the invention (10 g/100 ml), Cyclophosphamide (CTX), Mitoxantrone (DHAD), Mitomycin (MMC) and normal saline
Each mouse was inoculated with 0.2 ml of the suspension subcutaneously at the right axilla, and the mice were grouped randomly. The administration began from the next day according to the dosage program in Table 7. […] Weights of tumor were compared and inhibition rates were calculated for each group.

[1] = system: Bcap-37 human breast cancer; assay: Bcap-37 human breast cancer transplanted in nude mice; format: in vivo, BALB/C nude mice; settings: 25 mg/kg, ip × 1
Description: The injection of the invention (10 g/100 ml), Docetaxel injection (Taxotere, 20 mg/vial) and normal saline
Bcap-37 human breast cancer: inoculated in BALB/C nude mice (SPF grade), 18-20 g, female
(§1) Tumor blocks of well-grown Bcap-37 human breast cancer were homogenized in normal saline to obtain cell suspensions in the concentration of 1-2×10^7 cells/ml. Each nude mouse was inoculated with 0.2 ml of the suspension at the right axilla subcutaneously, and the mice were grouped randomly. The administration began from the 7th day after the inoculation. 20 Days after the inoculation, the mice were sacrificed. Tumor blocks were taken out and weighed. Differences of tumor weight between each experimental group and the control group were compared, and tumor inhibition rates and Q values were calculated.

[2] = system: PANC-1 human pancreatic cancer; assay: PANC-1 human pancreatic cancer transplanted in nude mice; format: in vivo, BALB/C nude mice; settings: 60 mg/kg, iv × 1
Description: as §3
Tumor blocks of well-grown PANC-1 human pancreatic cancer were inoculated subcutaneously in 4-week-old female BALB/C nude mice. The nude mice were grouped randomly and administered. One week after the end of the administration, the mice were sacrificed and dissected. Tumor blocks were taken out and weighed. Differences of tumor weight between each experimental group and the control group were compared and the tumor inhibition rates were calculated.

[3] = system: FC-3M human prostate cancer; assay: FC-3M human prostate cancer transplanted in nude mice; format: in vivo, BALB/C nude mice; settings: iv × 1
Description: The injection of the invention (10 g/100 ml), Leuprolide acetate (Lupron) and normal saline
Tumor blocks of well-grown FC-3M human prostate cancer were homogenized in normal saline (1:4). Each nude mouse was inoculated with 0.2 ml of the suspension at the right axilla subcutaneously, and the mice were grouped randomly. The administration began from the next day. 21 Days after the inoculation, the mice were sacrificed. Tumor blocks were taken out and weighed. Differences of tumor weight between each experimental group and the control group were compared and the tumor inhibition rates were calculated.

[4] = system: MDA-MB-435 human breast cancer; assay: MDA-MB-435 human breast cancer transplanted in nude mice; format: in vivo, BALB/C nude mice; settings: 50 mg/kg, ip × 1
Description: as §1, with “Each” for “Tumor blocks of well-grown Bcap-37 human breast cancer were homogenized in normal saline to obtain cell suspensions in the concentration of 1-2×10^7 cells/ml. Each”, “18” for “20”

[5] = system: H460 (human lung cancer cells); assay: Inhibition on human tumor cell lines in MTT method in vitro; format: cell-based; settings: NCI-H460
Excerpt: (§2) (1) Cell lines: PANC-1 (human pancreatic cancer cells), SKOV3 (human ovarian cancer cells), MCF-7 (human breast cancer cells), Bcap-37 (human breast cancer cells), SMMC-7721 (human hepatic cancer cells), HepG-2 (human hepatic cancer cells), A549 (human lung cancer cells) and H460 (human lung cancer cells), storaged and passaged maintainably in Research and Evaluation Center for Pharmacology, Shanghai Institute of Pharmaceutical Industry; The inhibition effects of samples on the above-mentioned cell lines were detected by using MTT method. The specific procedures were as follows: (1) Cell culture: (a) Storaged cells were taken out from the liquid nitrogen, thawed quickly in a 37 water bath, then aseptically transferred into 6 ml of cellular medium in a 10 ml centrifugal tube, and centrifuged at 1000 rpm for 5 min. The supernatant was discarded, then the precipitated cells were re-suspensed in 5-6 ml cellular media by pipetting and transferred into a flask in a 37 incubator for cell culture; (b) Next day, the flask was taken out from the incubator and the used medium was discarded, then the cells were incubated in 5-6 ml fresh medium in the 37 incubator; (c) On the third day, the flask was taken out from the incubator and the used medium was discarded, then 2-3 ml of PBS (pH7.4) was added into the flask with rocking for cleaning it and the used PBS was discarded. […] The flask was capped and placed in a 37 incubator for about 3 min, and the separation of cells from the flask wall was observed under the microscope. 2 ml of cellular medium was added and cells were separated completely from the flask wall by pipetting, then the cell suspension was transferred into 2 separate clean flasks, each containing 5-6 ml medium. The cell suspension was well-distributed by pipetting, then the flask was placed in a 37 incubator. (d) Step (c) was repeated every other day. In the whole cultivation process, adherent cells were not allowed to grow too dense and suspension cells were always maintained at a logarithmic growth stage. (2) Preparation of the sample and the control: A proper amount of sample of Coix seed oil (oil of Job's tears seed) was dissolved in DMSO to obtain a solution in a concentration of 10 mg/ml. […] The correspondingly diluted DMSO solutions, as controls, were added into the wells of the microplate. (4) Cells in a logarithmic growth stage were trypsinized and washed, then re-suspended in the medium containing 10% calf serum. The number of living cells was counted in Trypan blue dye exclusion method and cell suspensions were adjusted into a density of 2×10^5 cell/ml. (5) The cell-contained 96 well flat-bottom microplate was placed in a 37 incubator and cells were incubated under 5% CO2 for 48 h. (6) 20 μl of 5 mg/ml MTT solution was added into each well and cells were incubated continuously in the incubator for 3-4 h. (7) 100 μl of crystal dissolving solution was added into each well and cells were incubated continuously in the incubator overnight, so as to dissolve the resulted formazan crystals sufficiently. Then, the absorbance value was measured at 570 nm for each well. […] The calculation formula was as follows: (1−mean absorbance of experimental wells/mean absorbance of control wells)×100%

[6] = system: Bcap-37 (human breast cancer cells); assay: as above; format: cell-based; settings: Bcap37
Excerpt: as §2

[7] = system: SKOV3 (human ovarian cancer cells); assay: as above; format: cell-based; settings: SK-OV-3
Excerpt: as §2

[8] = system: HepG-2 (human hepatic cancer cells); assay: as above; format: cell-based; settings: HepG2
Excerpt: as §2

[9] = system: A549 (human lung cancer cells); assay: as above; format: cell-based
Excerpt: as §2

[10] = system: PANC-1 (human pancreatic cancer cells); assay: as above; format: cell-based
Excerpt: as §2

[11] = system: MCF-7 (human breast cancer cells); assay: as above; format: cell-based; settings: MCF7
Excerpt: as §2

[12] = system: SMMC-7721 (human hepatic cancer cells); assay: as above; format: cell-based
Excerpt: as §2

LM-3 human hepatoma = LM-3 human hepatoma transplanted in nude mice; settings: ip × 7qd
Description: When the inoculated tumor could be touched, the mice were randomly grouped and administered according to the experimental design program. All contacted feed, padding, cages and equipment, etc., should be autoclaved prior to use. The nude mice were fed in a laminar flow rack. Tumor sizes and animal weights were observed and tested dynamically. Mice in each group were sacrificed 3 weeks later or so, and tumors were surgically removed and weighed.
LM-3 human hepatoma cells cryopreserved in liquid nitrogen were recovered, and incubated in a 37 incubator under 5% CO2. Other steps were the same as mentioned in 2-B.

W256 cancer sarcoma = W256 cancer sarcoma transplanted in rats; format: in vivo, Wistar rats
Description: The injection of the invention (10 g/100 ml), Cyclophosphamide (CTX) and normal saline
W256 cancer sarcoma: inoculated in Wistar rats, 50-60 g, female
Ascitic fluid of rats with well-grown W256 cancer sarcoma was diluted with normal saline to obtain a cell suspension of about 1-2×10^7 cells/ml. Each rat was inoculated with 0.2 ml of the suspension at the right axilla subcutaneously. The rats were grouped randomly next day and began administration. Two weeks later, animals were sacrificed and dissected to take out the tumor block. Weights of tumor were compared between each experimental group and the control group and tumor inhibition rates were calculated.

Weight of animal start/end: end (QGY human hepatoma; 1 mg/kg): 24.5 | Weight of animal start/end: start (QGY human hepatoma; 1 mg/kg): 21.5 | Weight of animal start/end: end (QGY human hepatoma; 2 mg/kg): 23.2
SMILES: COc1cccc2c1C(=O)c1c(O)c3c(c(O)c1C2=O)C[C@@](O)(C(=O)CO)C[C@@H]3O[C@H]1C[C@H](N)[C@H](O)[C@H](C)O1 [Adriamycin]
Inhibition rate % (QGY human hepatoma; 1 mg/kg): 35.48% | Weight of tumor (g) x ± SD (QGY human hepatoma; 1 mg/kg): 0.742 ± 0.19 g | Inhibition rate % (QGY human hepatoma; 2 mg/kg): 68.87% | Weight of tumor (g) x ± SD (QGY human hepatoma; 2 mg/kg): 0.358 ± 0.12 g

SMILES: N.N.[Cl][Pt][Cl] [Cisplatin]
Inhibition rate % (A549 human lung cancer; 1 mg/kg): 41.07% | Weight of animal (g) start/end: end (A549 human lung cancer; 1 mg/kg): 24.5 g | Weight of animal (g) start/end: start (A549 human lung cancer; 1 mg/kg): 20.3 g | Weight of tumor (g) x ± SD (A549 human lung cancer; 1 mg/kg): 0.772 ± 0.15 g | Inhibition rate % (A549 human lung cancer; 2 mg/kg): 86.03% | Weight of animal (g) start/end: end (A549 human lung cancer; 2 mg/kg): 23.6 g | Weight of animal (g) start/end: start (A549 human lung cancer; 2 mg/kg): 20.3 g | Weight of tumor (g) x ± SD (A549 human lung cancer; 2 mg/kg): 0.183 ± 0.05 g

SMILES: O=C1c2c(O)ccc(O)c2C(=O)c2c(NCCNCCO)ccc(NCCNCCO)c21 [DHAD, Mitoxantrone]
Inhibition rate % (S180 sarcoma; 2 mg/kg): 51.0% | Weight of tumor (g) x ± SD (S180 sarcoma; 2 mg/kg): 0.77 ± 0.19 g

SMILES: CC(=O)O[C@@]12CO[C@@H]1C[C@H](O)[C@@]1(C)C(=O)[C@H](O)C3=C(C)[C@@H](OC(=O)[C@H](O)[C@@H](NC(=O)OC(C)(C)C)c4ccccc4)C[C@@](O)([C@@H](OC(=O)c4ccccc4)[C@H]21)C3(C)C [Docetaxel]
Inhibition rate % [1]: 56.80% | Weight of tumor (g) x ± SD [1]: 1.27 ± 0.88 g

SMILES: Nc1ccn([C@@H]2O[C@H](CO)[C@@H](O)C2(F)F)c(=O)n1 [Gemcitabine, gemcitabine hydrochloride]
Inhibition rate % [2]: 23.04% | Weight of tumor (g) x ± SD [2]: 0.1426 ± 0.078 g

SMILES: CCNC(=O)[C@@H]1CCCN1C(=O)[C@H](CCCNC(=N)N)NC(=O)[C@H](CC(C)C)NC(=O)[C@@H](CC(C)C)NC(=O)[C@H](Cc1ccc(O)cc1)NC(=O)[C@H](CO)NC(=O)[C@H](Cc1c[nH]c2ccccc12)NC(=O)[C@H](Cc1c[nH]cn1)NC(=O)[C@@H]1CCC(=O)N1 [Lupron, Leuprolide acetate]
Inhibition rate % ([3]; 0.75 ml/kg): 35.1% | Weight of tumor (g) x ± SD ([3]; 0.75 ml/kg): 0.98 ± 0.26 g | Inhibition rate % ([3]; 1.5 ml/kg): 47.68% | Weight of tumor (g) x ± SD ([3]; 1.5 ml/kg): 0.79 ± 0.16 g

SMILES: CO[C@@]12[C@H](COC(N)=O)C3=C(C(=O)C(C)=C(N)C3=O)N1C[C@@H]1N[C@@H]12 [MMC, Mitomycin]
Inhibition rate % (S180 sarcoma; 1.5 mg/kg): 39.5% | Weight of tumor (g) x ± SD (S180 sarcoma; 1.5 mg/kg): 0.95 ± 0.16 g

IC50 [5]: 0.49 µg/mL (≈ 0.574 µM) | IC50 [6]: 0.28 µg/mL (≈ 0.328 µM) | IC50 [7]: 0.22 µg/mL (≈ 0.258 µM) | IC50 [8]: 0.45 µg/mL (≈ 0.527 µM) | IC50 [9]: 0.46 µg/mL (≈ 0.539 µM) | IC50 [10]: 0.44 µg/mL (≈ 0.515 µM) | IC50 [11]: 0.18 µg/mL (≈ 0.211 µM) | IC50 [12]: 0.41 µg/mL (≈ 0.48 µM)
SMILES: CC(=O)O[C@H]1C(=O)[C@@]2(C)[C@H]([C@H](OC(=O)c3ccccc3)[C@]3(O)C[C@H](OC(=O)[C@H](O)[C@@H](NC(=O)c4ccccc4)c4ccccc4)C(C)=C1C3(C)C)[C@]1(OC(C)=O)CO[C@@H]1C[C@@H]2O [Taxol, Paclitaxel]
Inhibition rate % [4]: 62.87%

SMILES: O=P1(N(CCCl)CCCl)NCCCO1 (centres unmarked) [cyclophosphamide, Cyclophosphamide]
Weight of tumor (g) x ± SD (S180 sarcoma; 30 mg/kg): 0.95 ± 0.22 g | Inhibition rate % (S180 sarcoma; 30 mg/kg, listed as CTX): 39.5% | Inhibition rate % (LM-3 human hepatoma; 15 mg/kg): 27.21% | Weight of animal start/end: end (LM-3 human hepatoma; 15 mg/kg): 25.1 | Weight of animal start/end: start (LM-3 human hepatoma; 15 mg/kg): 20.6 | Weight of tumor (g) x ± SD (LM-3 human hepatoma; 15 mg/kg): 1.110 ± 0.11 g | Inhibition rate % (LM-3 human hepatoma; 30 mg/kg): 84.13% | Weight of animal start/end: end (LM-3 human hepatoma; 30 mg/kg): 25.6 | Weight of animal start/end: start (LM-3 human hepatoma; 30 mg/kg): 20.4 | Weight of tumor (g) x ± SD (LM-3 human hepatoma; 30 mg/kg): 0.242 ± 0.11 g | Weight of tumor (g) x ± SD (W256 cancer sarcoma; 10 mg/kg, iv × 2(3, 5)): 2.07 ± 1.11 g | Inhibition rate % (W256 cancer sarcoma; 10 mg/kg, iv × 2(3, 5), listed as CTX): 38.6% | Inhibition rate % (W256 cancer sarcoma; 30 mg/kg, iv × 7): 88.1** % | Weight of tumor (g) x ± SD (W256 cancer sarcoma; 30 mg/kg, iv × 7): 0.40 ± 0.15 g
